Source: PubChem BioAssay AID1963961 (Molecular Pharmacology Branch, DTP, NCI, 2024)
“And” between values parts separate entries of the source, which are not always exact repeats. Equal entries are not always repeated. Values belong to the compound of their own block, whether it stands above or below them.

Test system: K98450-129-R-PDC multicell spheroids, viability
Assay: Anticancer human tumor K98450-129-R-PDC patient-derived colon adenocarcinoma cell line growth inhibition [PI3K]
Settings: for viability, T/C: stronger effect = lower value
In short: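 Multi-cell spheroids combine tumor cells with HUVEC and human MSCs, treated with targeted agents alone or with inavolisib, alpelisib, duvelisib or copanlisib. Concentrations fall in half-log steps from at or near clinical Cmax, or from 10 microM where Cmax is unknown; viability read-out.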

[1] = curve of first compound, second compound 0.0316 µM
[2] = curve of first compound, second compound 0.1 µM
[3] = curve of first compound, second compound 0.316 µM
[4] = curve of first compound, second compound 1 µM
[5] = second compound 0.0316 µM, first compound 0.0316 µM
[6] = second compound 0.0316 µM, first compound 0.1 µM
[7] = second compound 0.0316 µM, first compound 0.316 µM
[8] = second compound 0.0316 µM, first compound 1 µM
[9] = second compound 0.0316 µM, first compound 3.16 µM
[10] = second compound 0.0316 µM, first compound 10 µM
[11] = second compound 0.1 µM, first compound 0.0316 µM
[12] = second compound 0.1 µM, first compound 0.1 µM
[13] = second compound 0.1 µM, first compound 0.316 µM
[14] = second compound 0.1 µM, first compound 1 µM
[15] = second compound 0.1 µM, first compound 3.16 µM
[16] = second compound 0.1 µM, first compound 10 µM
[17] = second compound 0.316 µM, first compound 0.0316 µM
[18] = second compound 0.316 µM, first compound 0.1 µM
[19] = second compound 0.316 µM, first compound 0.316 µM
[20] = second compound 0.316 µM, first compound 1 µM
[21] = second compound 0.316 µM, first compound 3.16 µM
[22] = second compound 0.316 µM, first compound 10 µM
[23] = second compound 1 µM, first compound 0.0316 µM
[24] = second compound 1 µM, first compound 0.1 µM
[25] = second compound 1 µM, first compound 0.316 µM
[26] = second compound 1 µM, first compound 1 µM
[27] = second compound 1 µM, first compound 3.16 µM
[28] = second compound 1 µM, first compound 10 µM
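Further: spheroids exposed to agents for seven days before read-out.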

- IC50 [1]: > 10 µM
- IC50 [2]: > 10 µM
- IC50 [3]: > 10 µM
- IC50 [4]: > 10 µM
- IC50 (curve of first compound, second compound 3.16 µM): > 10 µM
- IC50 (curve of first compound, second compound 10 µM): > 10 µM
Structure (SMILES): CC1(C)CCC(Nc2ncc(C(F)(F)F)c(-c3c[nH]c4c(P(C)(C)=O)c(C#N)ccc34)n2)CN1 (stereo not drawn) + Cc1nc(NC(=O)N2CCCC2C(N)=O)sc1-c1ccnc(C(C)(C)C(F)(F)F)c1
- viability, T/C [5]: 118%
- viability, T/C [6]: 101%
- viability, T/C [7]: 94.7%
- viability, T/C [8]: 68.7%
- viability, T/C [9]: 69.8%
- viability, T/C [10]: 64.6%
- viability, T/C [11]: 116%
- viability, T/C [12]: 104%
- viability, T/C [13]: 87.2%
- viability, T/C [14]: 67.4%
- viability, T/C [15]: 71.1%
- viability, T/C [16]: 67.6%
- viability, T/C [17]: 104%
- viability, T/C [18]: 102%
- viability, T/C [19]: 84.7%
- viability, T/C [20]: 69%
- viability, T/C [21]: 69.7%
- viability, T/C [22]: 66.7%
- viability, T/C [23]: 103%
- viability, T/C [24]: 96.8%
- viability, T/C [25]: 85.8%
- viability, T/C [26]: 69.6%
- viability, T/C [27]: 70%
- viability, T/C [28]: 63.4%
- viability, T/C (second compound 3.16 µM, first compound 0.0316 µM): 88.1%
- viability, T/C (second compound 3.16 µM, first compound 0.1 µM): 95.5%
- viability, T/C (second compound 3.16 µM, first compound 0.316 µM): 83%
- viability, T/C (second compound 3.16 µM, first compound 1 µM): 67.8%
- viability, T/C (second compound 3.16 µM, first compound 3.16 µM): 67.4%
- viability, T/C (second compound 3.16 µM, first compound 10 µM): 56.5%
- viability, T/C (second compound 10 µM, first compound 0.0316 µM): 81.6%
- viability, T/C (second compound 10 µM, first compound 0.1 µM): 85.5%
- viability, T/C (second compound 10 µM, first compound 0.316 µM): 70%
- viability, T/C (second compound 10 µM, first compound 1 µM): 60.8%
- viability, T/C (second compound 10 µM, first compound 3.16 µM): 62.4%
- viability, T/C (second compound 10 µM, first compound 10 µM): 50.5%

- IC50 (curve of first compound, second compound 0.00316 µM): > 10 µM
- IC50 (curve of first compound, second compound 0.01 µM): > 10 µM
- IC50 [1]: > 10 µM
- IC50 [2]: > 10 µM
- IC50 [3]: > 10 µM
- IC50 [4]: 4.39 µM
Structure (SMILES): C[C@@H](NC(=O)c1ncnc(N)c1Cl)c1ncc(C(=O)Nc2cc(C(F)(F)F)c(Cl)cn2)s1 + COc1c(OCCCN2CCOCC2)ccc2c3n(c(=NC(=O)c4cnc(N)nc4)nc12)CCN3
- viability, T/C (second compound 0.00316 µM, first compound 0.0316 µM): 119%
- viability, T/C (second compound 0.00316 µM, first compound 0.1 µM): 119%
- viability, T/C (second compound 0.00316 µM, first compound 0.316 µM): 108%
- viability, T/C (second compound 0.00316 µM, first compound 1 µM): 117%
- viability, T/C (second compound 0.00316 µM, first compound 3.16 µM): 133%
- viability, T/C (second compound 0.00316 µM, first compound 10 µM): 95%
- viability, T/C (second compound 0.01 µM, first compound 0.0316 µM): 108%
- viability, T/C (second compound 0.01 µM, first compound 0.1 µM): 93.7%
- viability, T/C (second compound 0.01 µM, first compound 0.316 µM): 115%
- viability, T/C (second compound 0.01 µM, first compound 1 µM): 108%
- viability, T/C (second compound 0.01 µM, first compound 3.16 µM): 105%
- viability, T/C (second compound 0.01 µM, first compound 10 µM): 95.9%
- viability, T/C [5]: 83.5%
- viability, T/C [6]: 96%
- viability, T/C [7]: 97.4%
- viability, T/C [8]: 93%
- viability, T/C [9]: 109%
- viability, T/C [10]: 78.7%
- viability, T/C [11]: 76%
- viability, T/C [12]: 87%
- viability, T/C [13]: 98.4%
- viability, T/C [14]: 90.3%
- viability, T/C [15]: 101%
- viability, T/C [16]: 70.9%
- viability, T/C [17]: 54.8%
- viability, T/C [18]: 71.6%
- viability, T/C [19]: 65.2%
- viability, T/C [20]: 69.2%
- viability, T/C [21]: 68.2%
- viability, T/C [22]: 51.1%
- viability, T/C [23]: 58.3%
- viability, T/C [24]: 55%
- viability, T/C [25]: 51.1%
- viability, T/C [26]: 62.1%
- viability, T/C [27]: 59.6%
- viability, T/C [28]: 37.1%

- IC50 (curve of compound): > 1 µM
Structure (SMILES): CCN1CCN(Cc2ccc(Nc3ncc(F)c(-c4cc(F)c5nc(C)n(C(C)C)c5c4)n3)nc2)CC1
- viability, T/C (compound 0.00316 µM): 108% [middle of 4 runs]
- viability, T/C (compound 0.01 µM): 99.3% [middle of 4 runs]
- viability, T/C (compound 0.0316 µM): 106% and 101% (2×) and 97%
- viability, T/C (compound 0.1 µM): 94.1% [middle of 4 runs]
- viability, T/C (compound 0.316 µM): 86.5% [middle of 4 runs]
- viability, T/C (compound 1 µM): 87.5% [middle of 4 runs]

- IC50 (compound alone, run of 04/25/2023): > 10 µM
Structure (SMILES): CC(Nc1ncnc2nc[nH]c12)c1cc2cccc(Cl)c2c(=O)n1-c1ccccc1 (stereo not drawn)
- viability, T/C (compound 0.0316 µM): 105% [middle of 8 runs]
- viability, T/C (compound 0.1 µM): 98.9% [middle of 8 runs]
- viability, T/C (compound 0.316 µM): 103% [middle of 8 runs]
- viability, T/C (compound 1 µM): 99.9% [middle of 8 runs]
- viability, T/C (compound 3.16 µM): 105% [middle of 8 runs]
- viability, T/C (compound 10 µM): 97.6% [middle of 8 runs]
